Source: patent US20250019346A1, “Salts of Ruxolitinib and Crystalline Forms Thereof” (Apotex Inc., priority 2021, published 2025)
Where two headings read alike, the source gives them in different places.

Key:
[1] = uncapped samples, 40° C./75% RH
Procedure: PXRD diffractograms were recorded on a Bruker D8 Discover powder X-ray diffractometer (Bruker AXS LLC, Karlsruhe, Germany). The generator was a Incoatec Microfocus Source (IμS) Cu tube (λ=1.54060 Å) with a voltage of 50 kV and current of 1.00 mA, using a divergence slit of 0.1 mm and collimator of 2.0 mm. For each sample, two frames were collected using a still scan with a PILATUS3 R 100K-A detector at the distance of 294.2 mm from the sample. Raw data were evaluated using the program DIFFRAC.EVA (Bruker AXS LLC, Karlsruhe, Germany).

[2] = Comparative intrinsic dissolution testing (Wood apparatus); format: physicochemical; conditions: 900 mL deionized water, 75 rpm, sample compressed at 1.5 metric tons for 1 minute
Procedure: Intrinsic dissolution rate (IDR) measurements were performed using a Wood apparatus. Samples were prepared by compressing 250-300 mg sample at 1.5 metric tons for 1 minute. A dissolution medium consisting of 900 mL deionized water, and rotation speed of 75 rpm, was used for each experiment.

[3] = pH values 1.2, 4.5 and 6.8
[4] = per CDER review, NDA 202192; cited from earlier work

SMILES	Change in the crystalline form (PXRD) ([1]; at least 5 months)	Intrinsic Dissolution Rate [2] [mg min^−1 cm^−2]	also measured
CC1=CC(=O)NS(=O)(=O)O1.N#CCC(C1CCCC1)n1cc(-c2ncnc3[nH]ccc23)cn1 (stereo not shown) [Ruxolitinib acesulfamate Form APO-II]	no change in the crystalline form occurred	0.0767	
CC1=CC(=O)NS(=O)(=O)O1.N#CC[C@H](C1CCCC1)n1cc(-c2ncnc3[nH]ccc23)cn1 [Ruxolitinib acesulfamate Form APO-I]		0.2261	Change in the crystalline form (PXRD) ([1]; 8 weeks): no change in the crystalline form occurred
N#CCC(C1CCCC1)n1cc(-c2ncnc3[nH]ccc23)cn1.O=S(=O)(O)CCS(=O)(=O)O (stereo not shown) [Ruxolitinib edisylate Form APO-I]	no change in the crystalline form occurred	0.1711	
CS(=O)(=O)O.N#CC[C@H](C1CCCC1)n1cc(-c2ncnc3[nH]ccc23)cn1 [Ruxolitinib mesylate Form APO-I]			Change in the crystalline form (PXRD) ([1]; at least 8 months): no change in the crystalline form occurred; Solubility [3]: high solubility
N#CCC(C1CCCC1)n1cc(-c2ncnc3[nH]ccc23)cn1.O=S(=O)(O)c1cccc2c(S(=O)(=O)O)cccc12 (stereo not shown) [Ruxolitinib napadisylate Form APO-I]	no change in the crystalline form occurred		
N#CC[C@H](C1CCCC1)n1cc(-c2ncnc3[nH]ccc23)cn1 [Ruxolitinib phosphate]		0.0545	Biopharmaceutics Classification System (BCS) class [4]: Class I; Permeability [4]: high permeability; Solubility [4]: high solubility
